Data on one molecule can be found in PMC8466755, “GPCR Pharmacological Profiling of Aaptamine from the Philippine Sponge Stylissa sp. Extends Its Therapeutic Potential for Noncommunicable Diseases” (Molecules, 2021).

As usually defined, the inhibition is the drop in the measured response relative to a control, in per cent. Usually IC50 stands for the point on the concentration scale where inhibition reaches its midpoint. A word on the EC50: it is the midpoint of the concentration-response curve. As usually defined, the MIC is the lowest concentration found to suppress growth.

In brackets after ≈: the same amount, converted by molar mass. Entries after “also recorded” stand apart in the source; their conditions may differ.

Data set [1] deals with T1, SSTR1 (Homo sapiens, UniProt P30872). Briefly: PathHunter β-arrestin primary screen, antagonist mode (potentiator hit). Type of data set: cell-based. The note with it: control agonist at EC80, negative inhibition = potentiation, read-out: % Activation or inhibition, primary screen. Here is the method:
(§1) Aaptamine (20 µM) was profiled in gpcrMAX panel biosensor assays (in agonist and antagonist modes) against a panel of 168 GPCRs. The assay was performed by DiscoverX Corporation (Fremont, CA) using PathHunter β -arrestin enzyme fragment complementation (EFC) technology, in a similar way to that described elsewhere. The PathHunter cell lines were taken from freezer stocks according to standard procedures. A total of 20 µL of cells were seeded into white 384-well plates and incubated at 37 °C for the appropriate time prior to testing.
(§2) For antagonist determination, PathHunter cells were preincubated with aaptamine followed by the addition of an agonist. In this assay format, the standard agonist was added at an EC80 concentration. To the plate that contained the cells, 5 µL of the 5X sample was added and incubated for 30 min at 37 °C or room temperature. After the incubation period, 5 µL of the 6X EC80 agonist in an assay buffer was added to the cells and incubated for additional 90 or 180 min at 37 °C or room temperature.

In data set [2] the target is T2, CXCR3 (Homo sapiens, UniProt P49682).
T2 sequence (P49682 1-368): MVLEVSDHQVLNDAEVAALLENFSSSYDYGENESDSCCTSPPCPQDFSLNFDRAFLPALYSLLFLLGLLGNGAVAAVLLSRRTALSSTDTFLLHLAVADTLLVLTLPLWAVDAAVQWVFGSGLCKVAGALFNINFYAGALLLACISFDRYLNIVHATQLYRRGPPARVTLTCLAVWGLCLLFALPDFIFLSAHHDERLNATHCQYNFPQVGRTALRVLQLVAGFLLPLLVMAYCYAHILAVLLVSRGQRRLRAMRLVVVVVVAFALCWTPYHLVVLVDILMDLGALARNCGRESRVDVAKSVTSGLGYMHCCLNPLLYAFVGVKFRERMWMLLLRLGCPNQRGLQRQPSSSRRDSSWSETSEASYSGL
The description is as above. Type of data set: cell-based. Conditions: control agonist at EC80, negative inhibition = potentiation, read-out: Primary Screen Maximal Response, % Inhibition or Activation. How it is done: as §1, §2

The target in data set [3] is T3, HTR1E (Homo sapiens, UniProt P28566). The description is as above. Type of data set: cell-based. The note with it: control agonist at EC80, negative inhibition = potentiation, read-out: % Activation or inhibition, primary screen. How it is done: as §1, §2
T3 sequence (P28566 whole entry): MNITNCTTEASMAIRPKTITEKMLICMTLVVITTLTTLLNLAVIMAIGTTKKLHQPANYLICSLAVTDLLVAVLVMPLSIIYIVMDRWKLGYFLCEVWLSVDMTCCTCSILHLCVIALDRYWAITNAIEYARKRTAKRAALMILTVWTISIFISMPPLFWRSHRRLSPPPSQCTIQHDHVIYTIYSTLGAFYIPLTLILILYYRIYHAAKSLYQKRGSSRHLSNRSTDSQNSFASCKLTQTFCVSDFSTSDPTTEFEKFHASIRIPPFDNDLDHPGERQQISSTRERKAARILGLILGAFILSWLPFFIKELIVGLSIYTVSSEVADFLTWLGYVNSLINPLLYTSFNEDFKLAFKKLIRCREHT
The subject of data set [4] is HeLa cells. Also noted: method as in PMID 20451377. Conditions: read-out: cytotoxicity against HeLa cells IC50; cited from earlier work.
Data set [5] concerns the target T3, HTR1E. Briefly: PathHunter β-arrestin assay, positive allosteric modulation (PAM) mode. Format: cell-based. The note with it: dose-response, control agonist at EC20.
The target of data set [6] is CXCR7 (Homo sapiens, UniProt P25106). Briefly: PathHunter β-arrestin assay, agonist mode. Type of data set: cell-based.
CXCR7, sequence (P25106 whole entry): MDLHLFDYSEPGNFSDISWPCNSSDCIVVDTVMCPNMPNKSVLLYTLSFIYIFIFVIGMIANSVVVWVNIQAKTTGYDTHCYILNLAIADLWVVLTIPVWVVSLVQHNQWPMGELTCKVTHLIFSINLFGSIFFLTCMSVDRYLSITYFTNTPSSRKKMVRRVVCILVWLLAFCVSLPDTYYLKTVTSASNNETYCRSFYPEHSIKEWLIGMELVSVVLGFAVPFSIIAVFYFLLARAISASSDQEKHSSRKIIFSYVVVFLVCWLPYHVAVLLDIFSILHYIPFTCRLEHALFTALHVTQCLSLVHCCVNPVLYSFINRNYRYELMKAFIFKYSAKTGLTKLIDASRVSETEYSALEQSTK
Data set [7] has as its system Candida tropicalis. Details: method as in doi:10.1016/S0040-4020(03)01069-X. The note with it: antifungal; cited from earlier work.
Data set [8] concerns the target T1, SSTR1. The experiment in a line: PathHunter β-arrestin assay, positive allosteric modulation (PAM) mode. Format: cell-based. Conditions: dose-response, control agonist at EC20.
The target in data set [9] is opioid receptor delta 1 (OPRD1) (Homo sapiens, UniProt P41143). Briefly: PathHunter β-arrestin assay, agonist mode. Type of data set: cell-based. Conditions: 20 µM primary screen. Here is the method:
as §1
For agonist determination, aaptamine was incubated with PathHunter cell lines to induce a response. To increase the concentration, intermediate dilution from 20 µM of aaptamine was performed to generate a 5X sample in an assay buffer. Then, 5 µL of 5X sample was added to the plate with PathHunter cells and incubated for 90 or 180 min at 37 °C or room temperature. The percentage activity of aaptamine was calculated following this formula: % activity = 100% × (mean RLU of test sample − mean RLU of vehicle control)/(mean MAX control ligand − mean RLU of vehicle control).

The test system of data set [10] is Saccharomyces cerevisiae (BY4741). Briefly: Yeast growth inhibition assay. The note with it: up to 50 µM, 24 h. Type of data set: cell-based. The text has this: Each treatment was done in triplicate.
Data set [11] has as its target T4, CCR3 (Homo sapiens, UniProt P51677).
T4 sequence (P51677 1-355): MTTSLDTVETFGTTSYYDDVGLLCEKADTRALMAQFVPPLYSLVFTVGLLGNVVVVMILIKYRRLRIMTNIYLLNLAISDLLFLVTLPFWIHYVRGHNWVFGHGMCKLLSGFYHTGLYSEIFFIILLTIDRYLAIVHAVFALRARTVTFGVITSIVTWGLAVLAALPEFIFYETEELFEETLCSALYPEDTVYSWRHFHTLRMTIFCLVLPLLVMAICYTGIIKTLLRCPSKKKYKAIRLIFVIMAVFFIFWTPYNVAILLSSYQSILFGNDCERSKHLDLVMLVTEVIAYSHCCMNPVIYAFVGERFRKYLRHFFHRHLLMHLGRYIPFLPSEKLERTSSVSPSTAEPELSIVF
The experiment in a line: PathHunter β-arrestin assay, positive allosteric modulation (PAM) mode. Type of data set: cell-based. The note with it: control agonist at EC20. Here is the method:
(§3) Hit validation was performed by subjecting the aaptamine to an agonist, antagonist, and positive allosteric modulation (PAM) secondary screen utilizing thirteen GPCR biosensor assays (Arrestin) against the following targets: ADRA2A, ADRA2C, ADRB2, CCR1, CCR3, CXCR3, CXCR7, DRD2L, DRD2S, DRD4, HTR1E, OPRK1, and SSTR1. The assays were performed at 10-point concentrations using three-fold serial dilutions in duplicate. For all the assay formats, the final assay vehicle concentration was 1%.
(§4) For PAM assays, the cells were preincubated with the sample followed by agonist induction at the EC20 concentration. To the cells, 5 µL of 5X sample was added and incubated for 30 min at 37 °C or room temperature. Following the incubation period, 5 µL of the 6X EC20 agonist prepared in an assay buffer was added to the cells and incubated for 90 or 180 min at 37 °C or room temperature. The percent activity of aaptamine was calculated following this formula: % modulation = 100% × ((mean RLU of test sample − mean RLU of EC20 control)/(mean RLU of MAX control ligand − mean RLU of EC20 control)).

Data set [12] deals with T2, CXCR3. The description is as above. Type of data set: cell-based. The note with it: control agonist at EC20. How it is done:
as §3, §4

Setting [13] is: PAM mode, read-out: Dose-Response Maximal Response, % Activation.
Where [14] appears, read: dose-response, read-out: EC50 (PAM).

T1 sequence (P30872 whole entry, the tested form may be a part): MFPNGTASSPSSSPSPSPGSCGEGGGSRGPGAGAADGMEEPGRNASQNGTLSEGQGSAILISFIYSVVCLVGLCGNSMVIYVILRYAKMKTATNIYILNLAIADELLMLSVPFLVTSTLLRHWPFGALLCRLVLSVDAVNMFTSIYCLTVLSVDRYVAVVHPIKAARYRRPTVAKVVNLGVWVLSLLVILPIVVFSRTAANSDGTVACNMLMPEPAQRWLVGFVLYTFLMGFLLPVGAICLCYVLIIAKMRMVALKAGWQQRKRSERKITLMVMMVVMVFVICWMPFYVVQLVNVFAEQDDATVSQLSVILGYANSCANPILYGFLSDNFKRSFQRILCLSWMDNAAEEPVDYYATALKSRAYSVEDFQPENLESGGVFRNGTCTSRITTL
opioid receptor delta 1 (OPRD1), sequence (P41143 whole entry): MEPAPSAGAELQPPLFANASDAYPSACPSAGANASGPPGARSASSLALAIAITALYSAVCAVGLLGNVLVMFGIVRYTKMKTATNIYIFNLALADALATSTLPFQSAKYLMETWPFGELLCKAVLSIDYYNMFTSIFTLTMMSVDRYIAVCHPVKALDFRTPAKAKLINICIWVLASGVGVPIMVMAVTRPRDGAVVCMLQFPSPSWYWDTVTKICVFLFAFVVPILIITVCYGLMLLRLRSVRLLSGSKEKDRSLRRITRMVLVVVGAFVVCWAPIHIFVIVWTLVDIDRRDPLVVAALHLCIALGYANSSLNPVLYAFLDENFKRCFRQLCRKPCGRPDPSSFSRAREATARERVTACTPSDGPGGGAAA

`COc1cc2ccnc3c2c(c1OC)NC=C3` [aaptamine]: the inhibition at 20 µM was -46% in data set [1] and -47% in [3]. For the same molecule, the Emax at 20 µM in data set [2] worked out at 69%. For the same molecule, the IC50 in data set [4] was 66 µM. Further, the “validation of potentiator hit under PAM conditions” value in data set [5] and in data set [8] was “false positives; also recorded: did not validate” each time. Moreover, the “Dose-Response Maximal Response, % Activation” value in data set [6] (dose-response analysis) is given as 122.57%. Also, the Emax in [6] (dose-response analysis, read-out: Dose-Response Maximal Response, % Activation) stood at 123%; in data set [11] (setting [13]), 33%; in data set [12] (setting [13]), 74.6%. The EC50 in data set [6] (dose-response, agonist mode) came to 6.2 µM; in data set [11] (setting [14]), 16.2 µM; in [12] (setting [14]), 31.8 µM. Further, the MIC in data set [7] was 110 µM (≈ 25.1 µg/mL). Also, the “agonistic activity in the β-arrestin assay” value in data set [9] is listed as “did not demonstrate significant agonistic activity”. In data set [10], the growth inhibitory activity entry is on record as “did not observe growth inhibitory activity”.
